# From ChEMBL document CHEMBL5126500, “Small-molecule inhibitors of breast cancer-related targets: Potential therapeutic agents for breast cancer” (Eur J Med Chem, 2021)
# Tests used:
# CDK6/cyclin D3 = CDK6/cyclin D3 (Homo sapiens, UniProt Q00534); assay: Binding affinity to CDK6/Cyclin D3 (unknown origin) assessed as inhibition constant by radiometric assay; type: protein-complex assay
# MX1 = assay: Cytotoxicity against human MX1 cells assessed as cell survival incubated for 72 hrs by MTT assay; type: functional, cell-based; details: MX1, 72 h
# [1] = molecular target: T1, Poly [ADP-ribose] polymerase 1 (Homo sapiens, UniProt P09874); assay: Inhibition of PARP1 (unknown origin) using NAD+ as substrate incubated for 30 mins by fluorescence based assay
# T1 sequence (P09874 whole entry): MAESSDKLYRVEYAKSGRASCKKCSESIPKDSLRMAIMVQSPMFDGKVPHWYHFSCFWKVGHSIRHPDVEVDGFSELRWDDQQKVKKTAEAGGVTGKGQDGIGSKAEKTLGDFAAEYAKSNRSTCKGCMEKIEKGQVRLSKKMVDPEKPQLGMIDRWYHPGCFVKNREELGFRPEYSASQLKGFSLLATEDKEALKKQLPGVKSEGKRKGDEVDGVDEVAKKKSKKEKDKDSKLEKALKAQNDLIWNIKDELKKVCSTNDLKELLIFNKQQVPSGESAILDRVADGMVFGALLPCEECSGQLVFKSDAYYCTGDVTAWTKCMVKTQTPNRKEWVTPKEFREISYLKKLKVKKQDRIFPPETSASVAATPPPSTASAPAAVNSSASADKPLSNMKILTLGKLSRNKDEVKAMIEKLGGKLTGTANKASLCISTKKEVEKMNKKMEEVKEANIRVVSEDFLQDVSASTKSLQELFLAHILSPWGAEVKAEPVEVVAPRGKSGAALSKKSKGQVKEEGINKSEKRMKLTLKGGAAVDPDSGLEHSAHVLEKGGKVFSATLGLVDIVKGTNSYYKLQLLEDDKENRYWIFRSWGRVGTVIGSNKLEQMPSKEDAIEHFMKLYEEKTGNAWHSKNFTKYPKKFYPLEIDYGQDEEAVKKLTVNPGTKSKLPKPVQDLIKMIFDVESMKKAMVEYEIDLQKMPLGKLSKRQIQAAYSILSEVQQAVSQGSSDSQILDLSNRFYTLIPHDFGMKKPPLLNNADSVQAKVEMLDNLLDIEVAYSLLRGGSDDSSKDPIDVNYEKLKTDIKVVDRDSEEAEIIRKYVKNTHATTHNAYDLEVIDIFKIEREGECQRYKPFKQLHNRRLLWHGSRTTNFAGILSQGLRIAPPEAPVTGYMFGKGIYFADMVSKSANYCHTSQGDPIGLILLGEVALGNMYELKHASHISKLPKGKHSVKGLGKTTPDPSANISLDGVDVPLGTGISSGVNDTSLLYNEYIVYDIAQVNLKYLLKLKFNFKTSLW
# MDA-MB-436 = assay: Antiproliferative activity against BRCA1 deficient human MDA-MB-436 cells assessed as reduction in cell viability incubated for 96 hrs by MTT assay; type: functional, cell-based; details: MDA-MB-436, 96 h
# [2] = molecular target: T1, Poly [ADP-ribose] polymerase 1; assay: Inhibition of PARP1 (unknown origin) incubated for 1 hr by colorimetry
# [3] = molecular target: Serine/threonine-protein kinase PLK1 (Homo sapiens, UniProt P53350); assay: Inhibition of PLK1-PBD (unknown origin) using FITC-GPMQSpTPLNG-OH as substrate incubated for 30 mins by fluorescence polarization assay
# Sequence of Serine/threonine-protein kinase PLK1 (P53350 whole entry): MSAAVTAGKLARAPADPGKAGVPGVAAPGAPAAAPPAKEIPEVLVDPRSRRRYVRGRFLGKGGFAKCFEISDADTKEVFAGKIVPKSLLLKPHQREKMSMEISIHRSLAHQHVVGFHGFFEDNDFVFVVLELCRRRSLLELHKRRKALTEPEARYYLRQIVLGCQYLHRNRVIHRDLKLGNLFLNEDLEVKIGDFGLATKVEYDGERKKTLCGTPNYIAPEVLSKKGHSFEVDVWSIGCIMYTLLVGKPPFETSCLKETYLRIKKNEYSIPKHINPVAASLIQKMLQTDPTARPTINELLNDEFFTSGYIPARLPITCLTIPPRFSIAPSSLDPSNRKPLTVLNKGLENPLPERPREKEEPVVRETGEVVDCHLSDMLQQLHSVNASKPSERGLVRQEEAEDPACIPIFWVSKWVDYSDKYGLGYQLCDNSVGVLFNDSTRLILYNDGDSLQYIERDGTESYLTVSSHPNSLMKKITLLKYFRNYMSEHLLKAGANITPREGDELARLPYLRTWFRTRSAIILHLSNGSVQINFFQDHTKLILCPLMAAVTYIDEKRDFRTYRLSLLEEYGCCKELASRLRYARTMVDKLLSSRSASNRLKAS
# [4] = molecular target: T2, Bromodomain-containing protein 4 (Homo sapiens, UniProt O60885); assay: Inhibition of BRD4 BD2 (unknown origin)
# [5] = molecular target: T2, Bromodomain-containing protein 4; assay: Inhibition of BRD4 BD1 (unknown origin)
# Histone deacetylase 8 = molecular target: T3, Histone deacetylase 8 (Homo sapiens, UniProt Q9BY41); assay: Inhibition of human recombinant HDAC8 using BML-KI178-0005 as substrate incubated for 10 mins by fluorescence based assay
# T3 sequence (Q9BY41 whole entry): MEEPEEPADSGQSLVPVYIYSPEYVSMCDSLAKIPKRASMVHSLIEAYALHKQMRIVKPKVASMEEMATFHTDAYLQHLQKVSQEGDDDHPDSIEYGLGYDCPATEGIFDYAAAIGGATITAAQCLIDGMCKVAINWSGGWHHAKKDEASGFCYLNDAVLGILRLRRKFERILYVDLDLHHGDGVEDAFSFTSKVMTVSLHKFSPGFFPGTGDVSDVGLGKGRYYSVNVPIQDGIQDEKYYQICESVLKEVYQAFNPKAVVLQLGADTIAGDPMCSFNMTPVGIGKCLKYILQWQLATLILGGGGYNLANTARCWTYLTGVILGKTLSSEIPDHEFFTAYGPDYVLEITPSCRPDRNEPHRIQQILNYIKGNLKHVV
# Sequence of CDK6/cyclin D3 (P30281 whole entry): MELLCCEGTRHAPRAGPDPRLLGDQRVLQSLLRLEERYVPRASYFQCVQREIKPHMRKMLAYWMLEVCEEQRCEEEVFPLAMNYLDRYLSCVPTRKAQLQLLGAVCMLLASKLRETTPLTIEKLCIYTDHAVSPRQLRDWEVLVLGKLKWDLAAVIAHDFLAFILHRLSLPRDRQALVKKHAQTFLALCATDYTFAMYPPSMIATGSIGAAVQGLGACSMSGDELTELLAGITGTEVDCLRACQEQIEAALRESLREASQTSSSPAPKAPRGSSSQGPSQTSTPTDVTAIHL
# Sequence of CDK6/cyclin D3 (Q00534 whole entry): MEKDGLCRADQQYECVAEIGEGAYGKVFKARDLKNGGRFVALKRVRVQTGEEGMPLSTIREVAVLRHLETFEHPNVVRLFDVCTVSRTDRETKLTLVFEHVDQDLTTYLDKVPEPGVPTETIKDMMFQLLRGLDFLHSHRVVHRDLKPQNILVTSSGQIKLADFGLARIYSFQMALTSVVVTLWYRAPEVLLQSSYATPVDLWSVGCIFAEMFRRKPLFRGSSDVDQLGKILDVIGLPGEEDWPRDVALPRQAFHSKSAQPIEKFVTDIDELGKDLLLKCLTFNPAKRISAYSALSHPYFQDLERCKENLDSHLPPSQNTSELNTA
smiles,measurement,setting,value
CC(=O)N1N=C(c2c(O)c3ccccc3oc2=O)CC1c1ccccc1Cl (centres undefined),Ki,CDK6/cyclin D3,0.0134 µM
CC(C)N1CCC(NC(=O)c2cc(Cn3c(=O)[nH]c(=O)c4ccccc43)ccc2F)C1 (centres undefined),IC50,MX1,< 3.12 µM
CC(c1nc2c(C(N)=O)cccc2[nH]1)N1CC(=O)N(c2ccc(C(F)(F)F)cc2)C1=S (centres undefined),IC50,[1],0.025 µM
same,IC50,MDA-MB-436,1 µM
O=C(c1ccc(Cc2n[nH]c(=O)c3cccnc23)cc1)n1cccc1,IC50,[2],0.036 µM
O=C(CCNC(=O)c1ccc(CO)cc1)N[C@@H](Cc1cnnn1CCc1ccccc1)C(=O)NCc1cn(CCP(=O)(O)O)nn1,IC50,[3],3.37 µM
C#CCSc1nc2nc(C)cc(Nc3cc(-c4ccccc4)[nH]n3)n2n1,IC50,[4],4.36 µM
same,IC50,[5],2.15 µM
O=C(CCN1CCN(C(=O)Nc2ccnc3ccccc23)CC1)NO,IC50,Histone deacetylase 8,1.74 µM
